Tests used:
Por. gingivalis 381 = experiment: Biofilm disruption assay on hydroxyapatite discs; assay type: cell-based, Porphyromonas gingivalis; conditions: Por. gingivalis 381 biofilm, DOSS 0.5% (w/v), CHX 0.2% (w/v)
Experimental: (§1) This assay was designed to determine quantitatively the relative potency of a test compound to disrupt (effectively kill) biofilms formed by a test organism on hydroxyapatite (HA) discs.
(§2) Biofilms were formed on sterile dense ceramic HA discs 7 mm diameter x 1.8 mm thick (Clarkson Chromatography) by placing the discs in the appropriate liquid media (as described above) inoculated with the test organism (0.5×10^8 cfu/ml). The HA discs were then incubated at 37° C. for ˜48 h in a 5% CO2 atmosphere (for Strep. mutans ATCC 25175) or ˜96 h under anaerobic conditions (for Por. gingivalis 381). Following the incubation period the supernatant was removed from the wells containing the HA discs and the discs were washed×3 with fresh media to ensure all planktonic cells were removed. The HA discs were then transferred to sterile bijoux bottles containing 1 ml of phosphate buffered saline (PBS) plus test compound(s) at the required concentration. After a set time period (usually 2 and/or 5 min), the HA disc was transferred to another sterile bijoux containing 1 ml of fresh growth media. Adherent cells were then harvested by vigorous vortexing for 2 minutes. A sample was then taken, serially diluted 10-fold in fresh growth media and inoculated onto agar plates in triplicate. Untreated HA discs, and HA discs added to PBS containing only the solvents used to dissolve the test compound(s), acted as controls.
(§3) The plates were then incubated as described above and subsequently examined visually for growth. Colonies were counted at an appropriate serial dilution (5-50 individual colonies visible) with the aid of a colony counter. These measurements were then converted to numbers of colony forming units (cfu), using the formula: cfu/ml=number of colonies×serial dilution factor×100 (as only a 10 μl sample was taken).
(§4) These cfu values were then converted into log10 values and plotted graphically against time of sample removal.
(§5) At each time point, samples were assessed in triplicate; the final cfu/ml value was an average (mean) of the three readings.
(§6) Biofilm disruption assays, as described above, were carried out using DOSS as the test compound and chlorhexidine (CHX) as a positive control. For these experiments, the DOSS was tested at 0.5% w/v against Por. gingivalis and 1% w/v against Strep. mutans. The ahlorhexidine was tested at a concentration of 0.2% w/v against both micro-organisms. The DOSS was dissolved in ethanol and the chlorhexidine in distilled water. All the experiments were conducted in triplicate.

Strep. mutans ATCC 25175 [1] = experiment: Biofilm disruption assay on hydroxyapatite discs; assay type: cell-based, Streptococcus mutans; conditions: Strep. mutans ATCC 25175 biofilm, DOSS 1.0% (w/v), CHX 0.2% (w/v)
Experimental: as §1, §2, §3, §4, §5, §6

P. acnes NCTC 737 [2] = experiment: Minimum inhibitory concentration (MIC) assay, liquid medium; assay type: cell-based, Propionibacterium acnes
Experimental: (§7) The propionibacteria were cultured and maintained on Wilkins-Chalgren Anaerobe Medium (agar and broth) at pH 6.0; all cultures were incubated anaerobically at 37° C. for 72 hours.
(§8) This is a standard international method for quantitatively assessing the antimicrobial activity of a compound in a liquid medium. The method used a sterile 96-well microtitre plate, capable of holding about 200 μl of liquid per well. The wells contained liquid culture medium and ranges of decreasing concentrations of the relevant test compound in doubling dilutions (eg, 1000, 500, 250, 125 . . . μg/ml, etc. down to 0.49 μg/ml). The culture media were as described above.
(§9) The wells were inoculated with a liquid suspension of freshly grown micro-organism and incubated under the conditions described above. After incubation, the microtitre plate was examined visually (with the aid of a light box) for cloudiness in each well, which would indicate microbial growth. The MIC value was recorded as the lowest concentration of test compound required to inhibit microbial growth, ie, the lowest concentration for which the liquid in the well remained clear.
(§10) The assays included both negative (culture medium with no micro-organisms) and positive (culture medium plus diluting solvent plus micro-organism) controls.

P. acnes NCTC 737 [3] = experiment: Minimum bactericidal concentration (MBC) assay; assay type: cell-based, Propionibacterium acnes
Experimental: (§11) The propionibacteria were cultured and maintained on Wilkins-Chalgren Anaerobe Medium (agar and broth) at pH 6.0; all cultures were incubated anaerobically at 37° C. for 72 hours. This assay, normally carried out after an MIC assay, determines the rnininiurn concentration of a compound that is lethal to the micro-organism being tested. […] These samples were then individually sub-cultured on antibiotic-free agar medium, under the incubation conditions described above. Following incubation they were examined visually for microbial growth.

P. acnes NCTC 737 [4] = experiment: Disc diffusion / synergy disc diffusion assay ((S)DDA); assay type: cell-based, Propionibacterium acnes; conditions: for SDDA area increase / SDDA increase: 200 μg DOS salt + 200 μg TCC; for SDDA with TCC: 200 μg DOS salt + 200 μg TCC on one disc; for SDDA increase: vs greater single-compound zone; for DDA + salt: sodium chloride 100 mM; for DDA + lipid: triolein 1% v/v
Experimental: as §7
(§12) A sterile paper disc was impregnated with a sample of the test compound in a suitable solvent and 30 minutes allowed for the solvents to evaporate (where possible). The disc was then placed on an agar plate onto which the test micro-organism had been inoculated. The plate was then incubated under the conditions described above, following which it was examined visually for signs of microbial growth. If the test compound had antimicrobial activity, a circular zone of no growth would be obtained around the disc. The diameter of this zone of “inhibition” was measured using a ProtoCOL™ automated zone sizer (Synbiosis, Cambridge, UK). In general, a greater diameter and/or area of the zone of inhibition indicates a greater antimicrobial activity in the relevant test compound, although other factors such as test compound mobility through the agar gel may also influence the result.
(§13) Two test a compounds A and B were placed on a single paper disc and the above described DDA procedure repeated. An increase in diameter of the zone of inhibition, compared to the greater of the zone diameters for the two compounds individually, was taken to indicate potential antimicrobial synergy. In practical terms, an increase of greater than 5 mm could be treated as significant.
Both the DDA and the SDDA test may be carried out using an agar gel supplemented with lipid and/or salt to simulate some of the major components present in human skin and to assess whether these substances might reduce the antimicrobial activity observed for the test compound. Performance under these conditions can provide a more reliable indication of activity on topical application. The supplements used in Examples 1, 11, 12 and 13 below were lipid (either Tween™ 80 at 1% v/v (Example 1) or triolein at 1% v/v (Examples 11, 12 and 13) and sodium chloride (100 mM).

[5] = test system: Por. gingivalis NCTC 11834; experiment: (S)DDA disc diffusion; assay type: cell-based, Porphyromonas gingivalis; conditions: for SDDA with TCC: 200 μg DOS salt + 200 μg TCC on one disc; for DDA: 200 μg per disc
Experimental: (§14) The P. gingivalis strains were cultured and maintained on Wilkins-Chalgren Anaerobe Medium (agar and broth) at pH 7.0; all cultures were incubated anaerobically at 37° C. for 5-7 days.
as §12, §13
(§15) For the (S)DDA experiments; 200 μg of the DOS salts and/or the TCC were loaded onto each disc for Por. gingivalis experiments. For the Strep. mutans experiments, 200 μg of the TCC and 50 μg of DOSS were used on each disc. All the experiments were conducted in triplicate.

Strep. mutans ATCC 25175 [6] = experiment: (S)DDA disc diffusion; assay type: cell-based, Streptococcus mutans; conditions: 200 μg per disc
Experimental: (§16) The S. mutans was cultured and maintained on Wilkins-Chalgren Anaerobe Medium (agar and broth) at pH 7.0 supplemented with 1 g/L glucose; all cultures were incubated at 37° C. for 48 h in an atmosphere containing 5% CO2.
as §12, §13, §15

[7] = test system: Por. gingivalis NCTC 11834; experiment: MIC assay, liquid medium; assay type: cell-based, Porphyromonas gingivalis
Experimental: as §14, §8, §9, §10

[8] = test system: Por. gingivalis NCTC 11834; experiment: MBC assay; assay type: cell-based, Porphyromonas gingivalis
Experimental: as §11, with “P. gingivalis strains” for “propionibacteria”, “7.0;” for “6.0;”, “5-7 days.” for “72 hours.”

Strep. mutans ATCC 25175 [9] = experiment: MIC assay, liquid medium; assay type: cell-based, Streptococcus mutans
Experimental: as §16, §8, §9, §10

Strep. mutans ATCC 25175 [10] = experiment: MBC assay; assay type: cell-based, Streptococcus mutans
Experimental: as §11, with “S. mutans was” for “propionibacteria were”, “7.0 supplemented with 1 g/L glucose;” for “6.0;”, “incubated” for “incubated anaerobically”, “48 h in an atmosphere containing 5% CO2.” for “72 hours.”

[11] = 200 μg of each test compound per disc (Example 2)
[12] = 200 μg per disc, pH 6.0, single replicates

**Q.** Which results are given for `[H]/N=C(\N/C(=N/[H])NCCCCCCNC(=N)NC(=N)Nc1ccc(Cl)cc1)Nc1ccc(Cl)cc1` [CHX, chlorhexidine]?
**A.** Viable cell counts (Por. gingivalis 381; 0 min): 7.53 log10 cfu/ml; Viable cell counts (Por. gingivalis 381; 2 min): 6.50 log10 cfu/ml; Viable cell counts (Por. gingivalis 381; 5 min): 6.76 log10 cfu/ml; Viable cell counts (Strep. mutans ATCC 25175 [1]; 0 min): 6.56 log10 cfu/ml; Viable cell counts (Strep. mutans ATCC 25175 [1]; 2 min): 6.12 log10 cfu/ml; Viable cell counts (Strep. mutans ATCC 25175 [1]; 5 min): 5.99 log10 cfu/ml

**Q.** `CCCCC(CC)COC(=O)CC(C(=O)OCC(CC)CCCC)S(=O)(=O)[O-].CCCCC(CC)COC(=O)CC(C(=O)OCC(CC)CCCC)S(=O)(=O)[O-].[Ca+2]` (stereo not drawn) [DOS calcium salt] was tested. Which MIC (P. acnes NCTC 737 [2]) did it give?
**A.** 15.6 µg/mL

**Q.** What about the MBC (P. acnes NCTC 737 [3]) of the same compound?
**A.** >31.25 µg/mL

**Q.** And the MIC/MBC ratio (P. acnes NCTC 737 [3])?
**A.** <0.5

**Q.** And the SDDA area increase (P. acnes NCTC 737 [4])?
**A.** 128.93%

**Q.** What about the “SDDA with TCC” value (P. acnes NCTC 737 [4]) of the same compound?
**A.** 36.16 mm

**Q.** And the SDDA increase (P. acnes NCTC 737 [4])?
**A.** 12.26 mm

**Q.** And the DDA (P. acnes NCTC 737 [4]; [11])?
**A.** 23.9 mm

**Q.** And the DDA (P. acnes NCTC 737 [4]; [12])?
**A.** 44.71 mm

**Q.** What about the “DDA + salt” value (P. acnes NCTC 737 [4]; 200 μg per disc, pH 6.0) of the same compound?
**A.** 43.16 mm

**Q.** And the “DDA + lipid” value (P. acnes NCTC 737 [4]; 200 μg per disc, pH 6.0)?
**A.** 49.36 mm

**Q.** What about the SDDA area increase [5] of the same compound?
**A.** 38.64%

**Q.** And the SDDA increase [5]?
**A.** 9.24 mm

**Q.** And the “SDDA with TCC” value [5]?
**A.** 61.31 mm

**Q.** And the DDA [5]?
**A.** 52.07 mm

**Q.** And the DDA (Strep. mutans ATCC 25175 [6])?
**A.** 32.13 mm

**Q.** What about the MIC [7] of the same compound?
**A.** 3.9 µg/mL

**Q.** What about the MBC [8] of the same compound?
**A.** 7.8 µg/mL

**Q.** What about the MIC/MBC ratio [8] of the same compound?
**A.** 0.5

**Q.** And the MIC (Strep. mutans ATCC 25175 [9])?
**A.** 15.6 µg/mL

**Q.** What about the MBC (Strep. mutans ATCC 25175 [10]) of the same compound?
**A.** 31.25 µg/mL

**Q.** What about the MIC/MBC ratio (Strep. mutans ATCC 25175 [10]) of the same compound?
**A.** 0.5

**Q.** For `CCCCC(CC)COC(=O)CC(C(=O)OCC(CC)CCCC)S(=O)(=O)[O-].[K+]` (stereo not drawn) [DOS potassium salt], which MIC (P. acnes NCTC 737 [2]) is on record?
**A.** 7.8 µg/mL

**Q.** What about the MBC (P. acnes NCTC 737 [3]) of the same compound?
**A.** 62.5 µg/mL

**Q.** What about the MIC/MBC ratio (P. acnes NCTC 737 [3]) of the same compound?
**A.** 0.125

**Q.** What about the SDDA area increase (P. acnes NCTC 737 [4]) of the same compound?
**A.** 99.37%

**Q.** What about the “SDDA with TCC” value (P. acnes NCTC 737 [4]) of the same compound?
**A.** 36.68 mm

**Q.** And the SDDA increase (P. acnes NCTC 737 [4])?
**A.** 10.7 mm

**Q.** What about the DDA (P. acnes NCTC 737 [4]; [11]) of the same compound?
**A.** 25.91 mm

**Q.** What about the DDA (P. acnes NCTC 737 [4]; [12]) of the same compound?
**A.** 46.57 mm

**Q.** What about the “DDA + salt” value (P. acnes NCTC 737 [4]; 200 μg per disc, pH 6.0) of the same compound?
**A.** 46.26 mm

**Q.** And the “DDA + lipid” value (P. acnes NCTC 737 [4]; 200 μg per disc, pH 6.0)?
**A.** 48.12 mm

**Q.** What about the SDDA area increase [5] of the same compound?
**A.** 43.78%

**Q.** And the SDDA increase [5]?
**A.** 10.18 mm

**Q.** And the “SDDA with TCC” value [5]?
**A.** 61.31 mm

**Q.** What about the DDA [5] of the same compound?
**A.** 51.13 mm

**Q.** And the DDA (Strep. mutans ATCC 25175 [6])?
**A.** 35.28 mm

**Q.** What about the MIC [7] of the same compound?
**A.** 3.9 µg/mL

**Q.** What about the MBC [8] of the same compound?
**A.** 7.8 µg/mL

**Q.** What about the MIC/MBC ratio [8] of the same compound?
**A.** 0.5

**Q.** And the MIC (Strep. mutans ATCC 25175 [9])?
**A.** 15.6 µg/mL

**Q.** What about the MBC (Strep. mutans ATCC 25175 [10]) of the same compound?
**A.** 31.25 µg/mL

**Q.** What about the MIC/MBC ratio (Strep. mutans ATCC 25175 [10]) of the same compound?
**A.** 0.5
